In ChEMBL document CHEMBL1201862, “PubChem BioAssay data set” (2004):
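Protocol summary: plate cells (96-well), add compound at 5 concentrations, incubate 48 h, interpolate endpoints linearly. Abbreviation: GI50, concentration required for 50% inhibition of growth.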 Calls of active or inactive are those of the source. Cut-off read from the data, not from the text of the source: active = GI50 up to about 1.1 µM and inactive = higher.

Assays:
Experiment in all cases: NCI-60 cell line screen, 48 h
KM-20L2 = test system: KM-20L2
HOP-18 = test system: HOP-18
DLD-1 = test system: DLD-1
M19-MEL = test system: M19-MEL
XF498 = test system: XF498
RXF 631 = test system: RXF 631
DMS-273 = test system: DMS-273
SNB-78 = test system: SNB-78
DMS-114 = test system: DMS-114

Measured: GI50

O=C(O)[C@@H](NS(=O)(=O)c1ccc([N+](=O)[O-])cc1)c1ccccc1
inactive: KM-20L2 > 100 µM | HOP-18 > 100 µM | DLD-1 > 100 µM | M19-MEL > 100 µM | XF498 > 100 µM | RXF 631 > 100 µM | DMS-273 > 100 µM

COc1ccc2nccc(C3OC(=O)N4CCC(=O)CC34)c2c1 (centres undefined)
inactive: KM-20L2 > 100 µM | M19-MEL > 100 µM | XF498 > 100 µM | RXF 631 > 100 µM | DMS-273 > 10 µM | SNB-78 > 100 µM

O=C(C(=O)c1ccc(Cc2ccc(C(=O)C(=O)c3ccccc3)cc2)cc1)c1ccccc1
inactive: KM-20L2 > 100 µM | DMS-114 > 100 µM | HOP-18 > 100 µM | DLD-1 > 100 µM | M19-MEL > 100 µM | RXF 631 > 100 µM | DMS-273 > 100 µM | SNB-78 > 100 µM

CC[P+](C)(C)CC
inactive: KM-20L2 > 100 µM | DMS-114 > 100 µM | HOP-18 > 100 µM | DLD-1 > 100 µM | M19-MEL > 100 µM | RXF 631 > 100 µM | DMS-273 > 100 µM | SNB-78 > 100 µM

CC1=C(C(=O)Nc2ccccc2C)C(/C=C/c2ccccc2)C(C(=O)Nc2ccccc2C)=C(C)N1
inactive: KM-20L2 > 100 µM | HOP-18 > 100 µM | DLD-1 > 100 µM | M19-MEL > 100 µM | XF498 > 100 µM | RXF 631 > 100 µM | DMS-273 > 100 µM | SNB-78 > 100 µM

Nc1nc(CCC(=O)Nc2cccc(C(F)(F)F)c2)cc(-c2cccc3ccccc23)n1
inactive: KM-20L2 > 100 µM | DMS-114 > 100 µM | HOP-18 > 100 µM | DLD-1 > 100 µM | M19-MEL > 100 µM | XF498 > 100 µM | RXF 631 > 100 µM | DMS-273 > 100 µM | SNB-78 > 100 µM

CC(C)=C1CCC(CN2CCCC2)C1=O (centres undefined)
inactive: KM-20L2 89.7 µM | DMS-114 20.4 µM | HOP-18 17.5 µM | DLD-1 17.3 µM | M19-MEL 20.6 µM | XF498 19.1 µM | RXF 631 > 100 µM | DMS-273 39.4 µM | SNB-78 > 100 µM

O=C(/C=C\c1ccc(Cl)c(Cl)c1)c1ccc(Cl)cc1Cl
inactive: KM-20L2 2.69 µM | DMS-114 > 10 µM | HOP-18 > 10 µM | DLD-1 5.41 µM | M19-MEL 18.7 µM | RXF 631 35.9 µM | DMS-273 10.4 µM | SNB-78 > 10 µM

C[C@H](C(=O)C12CC3CC(CC(C3)C1)C2)[C@H](O)c1ccccc1
inactive: KM-20L2 20.8 µM | HOP-18 98.9 µM | DLD-1 45.5 µM | XF498 26 µM | RXF 631 31.2 µM | SNB-78 31.6 µM

Cc1cn(C2CC(O)C(CO)O2)c(=O)n2nnnc12 (centres undefined)
inactive: DMS-114 > 100 µM | HOP-18 > 100 µM | DLD-1 > 100 µM | M19-MEL > 100 µM | RXF 631 > 100 µM | DMS-273 > 100 µM | SNB-78 > 100 µM

C[C@H](NC(=O)n1c2ccccc2c2ccccc21)C(=O)O
inactive: KM-20L2 > 100 µM | DMS-114 > 100 µM | HOP-18 > 100 µM | DLD-1 > 100 µM | M19-MEL > 100 µM | RXF 631 > 100 µM | DMS-273 > 100 µM

CN1CCN2c3ccccc3CC(C#N)(C#N)C2C1 (centres undefined)
inactive: KM-20L2 > 100 µM | DMS-114 > 100 µM | HOP-18 > 100 µM | DLD-1 > 100 µM | M19-MEL > 100 µM | RXF 631 > 100 µM | DMS-273 > 100 µM | SNB-78 > 100 µM

CC(=O)O[C@H]1CC[C@@]2(C)C(CC[C@]3(C)C2CC[C@]2(C)Oc4c(C)cc(O)cc4C[C@@H]23)C1(C)C (some centres undefined)
inactive: KM-20L2 5.5 µM | DMS-114 7.1 µM | HOP-18 13.5 µM | DLD-1 10.4 µM | M19-MEL 11.9 µM | RXF 631 5.16 µM | DMS-273 3.65 µM | SNB-78 7.52 µM

CCOC(=O)C1S/C(=N\c2ccc(OC)c(OC)c2)N=C1C (centres undefined)
inactive: KM-20L2 27 µM | DMS-114 28.5 µM | HOP-18 > 100 µM | DLD-1 31.4 µM | XF498 29.2 µM | RXF 631 47.6 µM | DMS-273 38.4 µM | SNB-78 48.5 µM

O=C(O)/C(=C/c1ccccc1[N+](=O)[O-])c1cccs1
inactive: KM-20L2 > 100 µM | HOP-18 > 100 µM | DLD-1 > 100 µM | M19-MEL > 100 µM | XF498 > 100 µM | RXF 631 > 100 µM | DMS-273 > 100 µM | SNB-78 > 100 µM

CN(C)CCC(=O)N1CCc2c([nH]c3ccccc23)C1c1cccnc1 (centres undefined)
inactive: KM-20L2 > 100 µM | DMS-114 > 100 µM | HOP-18 > 100 µM | DLD-1 > 100 µM | M19-MEL > 100 µM | XF498 > 100 µM | RXF 631 > 100 µM | DMS-273 > 100 µM | SNB-78 > 100 µM

CC12CC(Sc3ccccc3N1)c1ccccc1O2 (centres undefined)
inactive: KM-20L2 18.4 µM | DMS-114 15.6 µM | HOP-18 14.1 µM | DLD-1 15.2 µM | M19-MEL 16.7 µM | XF498 16.3 µM | RXF 631 15.1 µM | DMS-273 16.3 µM | SNB-78 16.5 µM

O=C1/C=C(/c2ccc(O)cc2)[C@@H](OC2OC(CO)C(O)C(O)C2O)Cc2ccc(O)cc2O1.O=C1/C=C(/c2ccc(O)cc2)[C@H](O)Cc2ccc(O[C@@H]3OC(CO)C(O)C(O)C3O)cc2O1 (some centres undefined)
inactive: KM-20L2 > 100 µM | DMS-114 > 100 µM | DLD-1 > 100 µM | M19-MEL > 100 µM | RXF 631 > 100 µM | SNB-78 > 100 µM
